In ChEMBL document CHEMBL5143584, “A dual aurora and lim kinase inhibitor reduces glioblastoma proliferation and invasion” (Bioorg Med Chem Lett, 2022):
Calls of active or inactive are those of the source. The rule behind the calls is not given here.

How the values were obtained:
[1] = test system: GBM; test: Anti-invasion activity against fluorescently labelled human GBM cells are co-cultured with mature brain organoids differentiated from iPSCs assessed as reduction in number of invading GBM cells incubated for 10 days by fluorescent confocal microscopy; type: functional, cell-based; details: time 10.0 day
[2] = Toxicity in human mature brain organoids differentiated from iPSCs assessed as decrease in organoid volume and surface area incubated for 10 days; type: cell-based; details: 240 h, time 10 day
[3] = test system: GBM; test: Antiproliferative activity against fluorescently labelled human GBM cells are co-cultured with mature brain organoids differentiated from iPSCs assessed as reduction in total number of GBM cells incubated for 10 days by fluorescent confocal microscopy; type: functional, cell-based; details: time 10.0 day
[4] = Antiproliferative activity against human GBM22 cells assessed as inhibition of cell proliferation incubated for 48 hrs by live/dead fluorescence imaging-based assay; type: functional; details: GBM
[5] = test system: GBM; test: Antiproliferative activity against fluorescently labelled human GBM cells are co-cultured with mature brain organoids differentiated from iPSCs assessed as reduction in total number of GBM cells at 500 nM incubated for 10 days by fluorescent confocal microscopy; type: functional, cell-based; details: time 10.0 day
[6] = test system: GBM; test: Antiproliferative activity against fluorescently labelled human GBM cells are co-cultured with mature brain organoids differentiated from iPSCs assessed as reduction in total number of GBM cells by FACS; type: functional, cell-based
[7] = target: Aurora kinase B (Homo sapiens, UniProt Q96GD4); test: Inhibition of AURKB (unknown origin)
Sequence of Aurora kinase B (Q96GD4 whole entry, the tested form may be a part): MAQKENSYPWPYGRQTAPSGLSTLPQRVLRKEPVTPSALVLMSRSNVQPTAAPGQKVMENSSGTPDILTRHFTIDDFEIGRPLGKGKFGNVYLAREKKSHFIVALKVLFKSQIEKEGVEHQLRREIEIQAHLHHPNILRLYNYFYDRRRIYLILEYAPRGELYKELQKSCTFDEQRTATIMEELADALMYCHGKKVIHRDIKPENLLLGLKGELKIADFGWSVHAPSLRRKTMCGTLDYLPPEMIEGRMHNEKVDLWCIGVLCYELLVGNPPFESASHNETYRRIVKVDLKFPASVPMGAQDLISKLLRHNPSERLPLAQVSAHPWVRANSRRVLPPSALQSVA

[8] = target: LIM domain kinase 1 (Homo sapiens, UniProt P53667); test: Inhibition of LIMK1 (unknown origin)
Sequence of LIM domain kinase 1 (P53667 whole entry, the tested form may be a part): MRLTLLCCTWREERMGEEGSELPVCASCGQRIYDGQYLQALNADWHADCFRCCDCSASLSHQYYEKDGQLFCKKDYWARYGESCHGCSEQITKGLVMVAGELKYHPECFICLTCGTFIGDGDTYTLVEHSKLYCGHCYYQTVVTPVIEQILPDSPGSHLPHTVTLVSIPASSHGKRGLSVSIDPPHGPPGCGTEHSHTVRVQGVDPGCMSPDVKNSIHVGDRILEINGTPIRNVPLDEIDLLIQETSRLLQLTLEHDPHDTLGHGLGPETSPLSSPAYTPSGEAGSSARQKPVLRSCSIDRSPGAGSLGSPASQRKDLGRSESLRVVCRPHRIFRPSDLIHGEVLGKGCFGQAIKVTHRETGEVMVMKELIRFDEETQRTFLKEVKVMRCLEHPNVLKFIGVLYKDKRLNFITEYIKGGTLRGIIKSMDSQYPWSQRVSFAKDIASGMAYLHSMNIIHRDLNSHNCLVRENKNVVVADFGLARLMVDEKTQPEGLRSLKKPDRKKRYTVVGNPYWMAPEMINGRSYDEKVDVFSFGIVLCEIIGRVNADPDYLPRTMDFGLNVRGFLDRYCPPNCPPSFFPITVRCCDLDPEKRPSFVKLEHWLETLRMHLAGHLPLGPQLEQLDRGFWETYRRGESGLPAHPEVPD

[9] = target: T1, Aurora kinase A (Homo sapiens, UniProt O14965); test: Inhibition of AURKA (unknown origin)
T1 sequence (O14965 whole entry): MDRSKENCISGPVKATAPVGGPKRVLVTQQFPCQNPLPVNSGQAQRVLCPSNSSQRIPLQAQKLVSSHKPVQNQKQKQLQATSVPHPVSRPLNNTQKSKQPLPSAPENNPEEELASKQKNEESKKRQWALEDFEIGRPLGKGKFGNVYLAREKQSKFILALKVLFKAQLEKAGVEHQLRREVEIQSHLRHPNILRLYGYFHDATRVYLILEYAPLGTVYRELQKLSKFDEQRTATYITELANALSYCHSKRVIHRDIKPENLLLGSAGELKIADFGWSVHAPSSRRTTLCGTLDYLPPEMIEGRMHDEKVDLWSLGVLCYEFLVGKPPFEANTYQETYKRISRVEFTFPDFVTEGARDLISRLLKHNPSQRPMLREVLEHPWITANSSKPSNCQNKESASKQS

[10] = Toxicity in human mature brain organoids differentiated from iPSCs assessed as decrease in organoid volume and surface area at 500 nM incubated for 10 days; type: cell-based; details: 240 h, 0.5 µM, time 10 day
[11] = Antiproliferative activity against human GBM22 cells assessed as inhibition of cell proliferation by CellTiter-Glo ATP content assay; type: functional, cell-based; details: GBM
[12] = Antiproliferative activity against human GBM22 cells assessed as inhibition of cell proliferation incubated for 24 hrs by live/dead fluorescence imaging-based assay; type: functional; details: GBM
[13] = test system: GBM; test: Anti-invasion activity against fluorescently labelled human GBM cells are co-cultured with mature brain organoids differentiated from iPSCs assessed as reduction in number of invading GBM cells at 500 nM incubated for 10 days by fluorescent confocal microscopy; type: functional, cell-based; details: time 10.0 day

Row | SMILES | Activity [1] | Activity [2] | Activity [3] | IC50 [4] [nM] | Activity [5] | Activity [6] | IC50 [7] [nM] | IC50 [8] [nM] | IC50 [9] [nM] | Activity [10] | IC50 [11] [nM] | IC50 [12] [nM] | Activity [13]
1 | CC(C)C(=O)Nc1ncc(-c2cc(C(F)F)nn2-c2c(Cl)cccc2Cl)s1 | Active | Non-Toxic | Active |  |  |  |  |  |  |  |  |  | 
2 | CC(C)n1cc(Nc2ncc3ccc(=O)n(C(C)C)c3n2)cn1 |  |  |  | 1530 | Active | Active | 17 | 137 | 72 | Toxic | 5340 | 2460 | Active
3 | Cc1csc(-c2nnc(Nc3ccc(Oc4ncccc4-c4ccnc(N)n4)cc3)c3ccccc23)c1 [AMG-900] |  | Non-Toxic | Active |  |  |  |  |  |  |  |  |  | 
